System: MCH receptors
Assay: MCH receptor activity class (method not given)
Details: class 1-3 by percent of control at 10^-7 M or IC50

SMILES	class
CN(C)c1nc(N[C@H]2CC[C@@H](NC(=O)C(C)(C)Oc3ccc(Cl)cc3)CC2)nc2c1CCCC2 [compound 575]	3 (Class 3 The value of percent of control at 10^−7 M was more than 60% or the value of IC50 was more than 200 nM.)
CN(C)c1nc(N[C@H]2CC[C@@H](NC(=O)c3cc(-c4ccc(Cl)cc4)oc3C(F)(F)F)CC2)nc2c1CCCC2 [compound 576]	3 (Class 3 The value of percent of control at 10^−7 M was more than 60% or the value of IC50 was more than 200 nM.)
CN(C)c1nc(N[C@H]2CC[C@@H](NC(=O)c3cc(C(C)(C)C)nn3Cc3ccc(Cl)cc3Cl)CC2)nc2c1CCCC2 [compound 577]	3 (Class 3 The value of percent of control at 10^−7 M was more than 60% or the value of IC50 was more than 200 nM.)
CN(C)c1nc(N[C@H]2CC[C@@H](NC(=O)C3=Cc4cc(Cl)ccc4OC3)CC2)nc2c1CCCC2 [compound 578]	3 (Class 3 The value of percent of control at 10^−7 M was more than 60% or the value of IC50 was more than 200 nM.)
CN(C)c1nc(N[C@H]2CC[C@@H](NC(=O)c3ccc(OC(F)(F)F)c(Cl)c3)CC2)nc2c1CCCC2 [compound 579]	3 (Class 3 The value of percent of control at 10^−7 M was more than 60% or the value of IC50 was more than 200 nM.)
Cc1cc(=O)oc2c(OCC(=O)N[C@H]3CC[C@@H](Nc4nc5c(c(N(C)C)n4)CCCC5)CC3)cccc12 [compound 580]	3 (Class 3 The value of percent of control at 10^−7 M was more than 60% or the value of IC50 was more than 200 nM.)
CN(C)c1nc(N[C@H]2CC[C@@H](NC(=O)c3csc(-c4cccs4)n3)CC2)nc2c1CCCC2 [compound 581]	2 (Class 2: The value of percent of control at 10^−7 M was from 40% to 60% or the value of IC′50 was from 50 nM to 200 nM.)
COc1cccc(C(=O)NC[C@H]2CC[C@@H](Nc3nc4c(c(N(C)C)n3)CCCC4)CC2)c1 [compound 582]	3 (Class 3 The value of percent of control at 10^−7 M was more than 60% or the value of IC50 was more than 200 nM.)
CN(C)c1nc(N[C@H]2CC[C@@H](CNC(=O)c3cccc(Br)c3)CC2)nc2c1CCCC2 [compound 583, 3-bromo-N-[(cis-4-{[4-(dimethylamino)-5,6,7,8-tetrahydroquinazolin-2-yl]amino}cyclohexyl)methyl]benzamide]	2 (Class 2: The value of percent of control at 10^−7 M was from 40% to 60% or the value of IC′50 was from 50 nM to 200 nM.)
CN(C)c1nc(N[C@H]2CC[C@@H](CNC(=O)c3ccc(Br)cc3)CC2)nc2c1CCCC2 [compound 584]	3 (Class 3 The value of percent of control at 10^−7 M was more than 60% or the value of IC50 was more than 200 nM.)
CN(C)c1nc(N[C@H]2CC[C@@H](CNC(=O)c3ccc4nonc4c3)CC2)nc2c1CCCC2 [compound 585]	3 (Class 3 The value of percent of control at 10^−7 M was more than 60% or the value of IC50 was more than 200 nM.)
CN(C)c1nc(N[C@H]2CC[C@@H](CNC(=O)c3cccc(Cl)c3)CC2)nc2c1CCCC2 [compound 586]	3 (Class 3 The value of percent of control at 10^−7 M was more than 60% or the value of IC50 was more than 200 nM.)
CN(C)c1nc(N[C@H]2CC[C@@H](CNC(=O)c3ccc(Cl)cc3)CC2)nc2c1CCCC2 [compound 587]	3 (Class 3 The value of percent of control at 10^−7 M was more than 60% or the value of IC50 was more than 200 nM.)
CN(C)c1nc(N[C@H]2CC[C@@H](CNC(=O)/C=C/c3ccccc3)CC2)nc2c1CCCC2 [compound 588]	3 (Class 3 The value of percent of control at 10^−7 M was more than 60% or the value of IC50 was more than 200 nM.)
CN(C)c1nc(N[C@H]2CC[C@@H](CNC(=O)c3ccc(Cl)c([N+](=O)[O-])c3)CC2)nc2c1CCCC2 [compound 589]	3 (Class 3 The value of percent of control at 10^−7 M was more than 60% or the value of IC50 was more than 200 nM.)
CN(C)c1nc(N[C@H]2CC[C@@H](CNC(=O)Cc3ccc(Cl)cc3)CC2)nc2c1CCCC2 [compound 590]	3 (Class 3 The value of percent of control at 10^−7 M was more than 60% or the value of IC50 was more than 200 nM.)
CN(C)c1nc(N[C@H]2CC[C@@H](CNC(=O)c3cccc(C#N)c3)CC2)nc2c1CCCC2 [compound 591]	3 (Class 3 The value of percent of control at 10^−7 M was more than 60% or the value of IC50 was more than 200 nM.)
CN(C)c1nc(N[C@H]2CC[C@@H](CNC(=O)c3cc(Cl)cc(Cl)c3)CC2)nc2c1CCCC2 [compound 592]	3 (Class 3 The value of percent of control at 10^−7 M was more than 60% or the value of IC50 was more than 200 nM.)
CN(C)c1nc(N[C@H]2CC[C@@H](CNC(=O)c3ccc(Cl)c(Cl)c3)CC2)nc2c1CCCC2 [compound 593]	3 (Class 3 The value of percent of control at 10^−7 M was more than 60% or the value of IC50 was more than 200 nM.)
CN(C)c1nc(N[C@H]2CC[C@@H](CNC(=O)C(c3ccccc3)c3ccccc3)CC2)nc2c1CCCC2 [compound 594]	3 (Class 3 The value of percent of control at 10^−7 M was more than 60% or the value of IC50 was more than 200 nM.)
CN(C)c1nc(N[C@H]2CC[C@@H](CNC(=O)c3ccc(F)c(F)c3)CC2)nc2c1CCCC2 [compound 595]	3 (Class 3 The value of percent of control at 10^−7 M was more than 60% or the value of IC50 was more than 200 nM.)
CN(C)c1nc(N[C@H]2CC[C@@H](CNC(=O)c3cc(F)cc(F)c3)CC2)nc2c1CCCC2 [compound 596]	3 (Class 3 The value of percent of control at 10^−7 M was more than 60% or the value of IC50 was more than 200 nM.)
COc1ccc(OC)c(CC(=O)NC[C@H]2CC[C@@H](Nc3nc4c(c(N(C)C)n3)CCCC4)CC2)c1 [compound 597]	3 (Class 3 The value of percent of control at 10^−7 M was more than 60% or the value of IC50 was more than 200 nM.)
CCSc1ncccc1C(=O)NC[C@H]1CC[C@@H](Nc2nc3c(c(N(C)C)n2)CCCC3)CC1 [compound 598]	1 (Class 1: The value of percent of control at 10^−7 M was less than 40% or the value of IC50 was less than 50 nM.)
CN(C)c1nc(N[C@H]2CC[C@@H](CNC(=O)c3ccc(F)cc3)CC2)nc2c1CCCC2 [compound 599]	3 (Class 3 The value of percent of control at 10^−7 M was more than 60% or the value of IC50 was more than 200 nM.)
CN(C)c1nc(N[C@H]2CC[C@@H](CNC(=O)c3cc(F)cc(C(F)(F)F)c3)CC2)nc2c1CCCC2 [compound 600]	3 (Class 3 The value of percent of control at 10^−7 M was more than 60% or the value of IC50 was more than 200 nM.)
CN(C)c1nc(N[C@H]2CC[C@@H](CNC(=O)c3cc(F)c(Cl)cc3Cl)CC2)nc2c1CCCC2 [compound 601]	3 (Class 3 The value of percent of control at 10^−7 M was more than 60% or the value of IC50 was more than 200 nM.)

Same assay, conditions: class by percent of control at 10^-7 M or IC50

SMILES	class
CCCCCC(=O)NC[C@H]1CC[C@@H](Nc2nc3c(c(N(C)C)n2)CCCC3)CC1 [compound 602]	3 (Class 3 The value of percent of control at 10^−7 M was more than 60% or the value of IC50 was more than 200 nM.)
CN(C)c1nc(N[C@H]2CC[C@@H](CNC(=O)c3ccc(I)cc3)CC2)nc2c1CCCC2 [compound 603]	3 (Class 3 The value of percent of control at 10^−7 M was more than 60% or the value of IC50 was more than 200 nM.)
CSc1ncccc1C(=O)NC[C@H]1CC[C@@H](Nc2nc3c(c(N(C)C)n2)CCCC3)CC1 [compound 604]	3 (Class 3 The value of percent of control at 10^−7 M was more than 60% or the value of IC50 was more than 200 nM.)
Cc1ccc(C(=O)NC[C@H]2CC[C@@H](Nc3nc4c(c(N(C)C)n3)CCCC4)CC2)cc1[N+](=O)[O-] [compound 605]	3 (Class 3 The value of percent of control at 10^−7 M was more than 60% or the value of IC50 was more than 200 nM.)
CN(C)c1nc(N[C@H]2CC[C@@H](CNC(=O)c3cccc([N+](=O)[O-])c3)CC2)nc2c1CCCC2 [compound 606]	3 (Class 3 The value of percent of control at 10^−7 M was more than 60% or the value of IC50 was more than 200 nM.)
CN(C)c1nc(N[C@H]2CC[C@@H](CNC(=O)Cc3ccccc3)CC2)nc2c1CCCC2 [compound 607]	3 (Class 3 The value of percent of control at 10^−7 M was more than 60% or the value of IC50 was more than 200 nM.)
CN(C)c1nc(N[C@H]2CC[C@@H](CNC(=O)C3C[C@H]3c3ccccc3)CC2)nc2c1CCCC2 (stereo partly drawn) [compound 608]	3 (Class 3 The value of percent of control at 10^−7 M was more than 60% or the value of IC50 was more than 200 nM.)
CN(C)c1nc(N[C@H]2CC[C@@H](CNC(=O)c3ccc4c(c3)OCO4)CC2)nc2c1CCCC2 [compound 609]	3 (Class 3 The value of percent of control at 10^−7 M was more than 60% or the value of IC50 was more than 200 nM.)
Cc1cccc(C(=O)NC[C@H]2CC[C@@H](Nc3nc4c(c(N(C)C)n3)CCCC4)CC2)c1 [compound 612]	3 (Class 3 The value of percent of control at 10^−7 M was more than 60% or the value of IC50 was more than 200 nM.)
Cc1ccc(C(=O)NC[C@H]2CC[C@@H](Nc3nc4c(c(N(C)C)n3)CCCC4)CC2)cc1 [compound 613]	3 (Class 3 The value of percent of control at 10^−7 M was more than 60% or the value of IC50 was more than 200 nM.)
CN(C)c1nc(N[C@H]2CC[C@@H](CNC(=O)c3cccs3)CC2)nc2c1CCCC2 [compound 614]	3 (Class 3 The value of percent of control at 10^−7 M was more than 60% or the value of IC50 was more than 200 nM.)
CN(C)c1nc(N[C@H]2CC[C@@H](CNC(=O)Cc3cccs3)CC2)nc2c1CCCC2 [compound 615]	3 (Class 3 The value of percent of control at 10^−7 M was more than 60% or the value of IC50 was more than 200 nM.)
CN(C)c1nc(N[C@H]2CC[C@@H](CNC(=O)c3cccc(OC(F)(F)F)c3)CC2)nc2c1CCCC2 [compound 616]	3 (Class 3 The value of percent of control at 10^−7 M was more than 60% or the value of IC50 was more than 200 nM.)
CN(C)c1nc(N[C@H]2CC[C@@H](CNC(=O)OCc3ccccc3)CC2)nc2c1CCCC2 [compound 617]	3 (Class 3 The value of percent of control at 10^−7 M was more than 60% or the value of IC50 was more than 200 nM.)
CN(C)c1nc(N[C@H]2CC[C@@H](CNC(=O)OCc3ccc([N+](=O)[O-])cc3)CC2)nc2c1CCCC2 [compound 618]	3 (Class 3 The value of percent of control at 10^−7 M was more than 60% or the value of IC50 was more than 200 nM.)

From US20050197350A1, “Novel quinoline, tetrahydroquinazoline, and pyrimidine derivatives and methods of treatment related to the use thereof” (TAISHO PHARMACEUTICAL CO., LTD., priority 2003, published 2005)
